Measurements: patent US4353923A, “Pharmaceutical composition containing a benzofurancarboxamide derivative as the active ingredient” (Kyowa Hakko Kogyo Co., Ltd., priority 1980, dated 1982)

What was measured:
male dd mice [1] = test: Analgesic activity: acetic acid writhing; format: in vivo; settings: Mus musculus, po, 1 h, acetic acid i.p. after 60 min, read-out: Inhibition ratio (writhes, vs control); for inhibition in vivo at 50 mg/kg: 50 mg/kg p.o.; for inhibition in vivo at 150 mg/kg: 150 mg/kg p.o.
Protocol: In this experiment, 10 male dd mice weighing 20±1 g were used as one group for examination of analgesic activity. Sixty minutes after oral administration of each drug to each animal, 0.2 ml of a 0.7% acetic acid solution was intraperitoneally administered to the animal. Starting 10 minutes after the administration of acetic acid, the number of writhes occurred in 10 minutes was counted. Average number of writhes and inhibition ratio in comparison with control group were calculated.

male dd mice [2] = test: Muscle relaxant activity: slant test; format: in vivo; settings: 5 mice per group
Protocol: (§1) In this example, 5 male dd mice weighing 20±1 g were used as one group. Prior to the experiments, mice were placed on the rod having a diameter of 3 cm and rotating at 5 r.p.m. in the reverse direction of the rotation. […] The drugs were orally administered and the muscle relaxant activity with the passage of time was examined by the following tests.
Slant test: Each mouse was placed on a wire net inclined at an angle of 45° to observe whether it falls or not.
(§2) In each test, the drug was considered to have a muscle relaxant activity when the mouse fell.

male dd mice [3] = test: Anticonvulsant activity: maximal electroshock convulsion test; format: in vivo; settings: Mus musculus, po, 1 h, 60 min after administration, read-out: Maximal electroshock convulsion test, inhibition ratio; for responders at 25 mg/kg: 25 mg/kg p.o.; for responders at 50 mg/kg: 50 mg/kg p.o.; for responders at 75 mg/kg: 75 mg/kg p.o.; for responders at 100 mg/kg: 100 mg/kg p.o.
Description: Anticonvulsant activity was examined according to maximal electroshock convulsion test.
In this experiment, 10 male dd mice weighing 23±1 g were used as one group. Each drug was orally administered to the animals. Sixty minutes after the administration, an electric current (2000 V, 50 mA) was applied to both eyes of the mouse for 0.2 second. Drug activity was judged according to whether tonic extensor seizures were observed or not.

male dd mice [4] = test: Muscle relaxant activity: rotating rod test; format: in vivo; settings: 5 mice per group
Protocol: as §1
Rotating rod test: The same mouse was placed on the rotating rod to observe whether it falls or not within 2 minutes.
as §2

male Wistar rats = test: Anti-inflammatory activity: carrageenin edema method; format: in vivo; settings: Rattus norvegicus, po, 3 hours after carrageenin, read-out: Inhibition ratio (paw swelling, vs control); for inhibition in vivo at 150 mg/kg: 150 mg/kg p.o.
Protocol: In this experiment, 5 male Wistar rats weighing 140±10 g were used as one group. Sixty minutes after oral administration of each drug to each animal, 0.1 ml of a 1% carrageenin solution as a phlogistic agent was injected into the plantar surface of the right hind paw of the animal to induce inflammation. The volume of the paw was measured before and 3 hours after the injection of the phlogistic agent. Swelling ratio and inhibition ratio in comparison with control group were calculated.

male dd mice [5] = test: Muscle relaxant activity: traction test; format: in vivo; settings: 5 mice per group
Description: as §1
Traction test: Forefeet of the same mouse were placed on a wire to observe whether it falls or not.
as §2

in vivo = settings: mouse, po, mice, deaths counted for 7 days
Protocol: In this example, 3-7 male dd mice weighing 20±1 g were used as one group. Each drug was suspended in a 0.3% CMC solution and orally administered. After the administration, number of dead animals was counted for 7 days to determine LD50 value. As the reference drugs, mepirizole and benzydamine hydrochloride were dissolved in water and orally administered. The drugs and the reference drugs were also administered in the same manner as above in Examples 2-5.

## Cc1c(C(=O)N(C)C)oc2cccc(Cl)c12 [Compound (A), 4-Chloro-N,N,3-trimethyl-benzo[b]furan-2-carboxamide]
Male dd mice [1]
  inhibition in vivo at 50 mg/kg: 60.6%
  inhibition in vivo at 150 mg/kg: 100%
Male dd mice [2]; 300 mg/kg p.o., 1 hr
  Number of dropped mice, slant test: 4 mice
Male dd mice [2]; 300 mg/kg p.o., 2 hr
  Number of dropped mice, slant test: 3 mice
Male dd mice [2]; 300 mg/kg p.o., 3 hr
  Number of dropped mice, slant test: 3 mice
Male dd mice [3]
  responders at 25 mg/kg: 10%
  responders at 50 mg/kg: 30%
  responders at 75 mg/kg: 80%
Male dd mice [4]; 75 mg/kg p.o., 1 hr
  Number of dropped mice, rotating rod test: 3 mice
Male dd mice [4]; 75 mg/kg p.o., 2 hr
  Number of dropped mice, rotating rod test: 2 mice
Male dd mice [4]; 75 mg/kg p.o., 3 hr
  Number of dropped mice, rotating rod test: 1 mice
Male dd mice [4]; 150 mg/kg p.o., 1 hr
  Number of dropped mice, rotating rod test: 5 mice
Male dd mice [4]; 150 mg/kg p.o., 2 hr
  Number of dropped mice, rotating rod test: 5 mice
Male dd mice [4]; 150 mg/kg p.o., 3 hr
  Number of dropped mice, rotating rod test: 2 mice
Male Wistar rats
  inhibition in vivo at 150 mg/kg: 33.4%
Male dd mice [5]; 75 mg/kg p.o., 1 hr
  Number of dropped mice, traction test: 3 mice
Male dd mice [5]; 75 mg/kg p.o., 2 hr
  Number of dropped mice, traction test: 0 mice
Male dd mice [5]; 75 mg/kg p.o., 3 hr
  Number of dropped mice, traction test: 0 mice
Male dd mice [5]; 150 mg/kg p.o., 1 hr
  Number of dropped mice, traction test: 5 mice
Male dd mice [5]; 150 mg/kg p.o., 2 hr
  Number of dropped mice, traction test: 3 mice
Male dd mice [5]; 150 mg/kg p.o., 3 hr
  Number of dropped mice, traction test: 1 mice
In vivo
  LD50 at 168 h: > 1000 mg/kg

## COc1ccc2oc(C(=O)N(C)C)c(C)c2c1 [Compound (F), 5-Methoxy-N,N,3-trimethyl-benzo[b]furan-2-carboxamide]
Male dd mice [1]
  inhibition in vivo at 150 mg/kg: 11%
Male dd mice [2]; 300 mg/kg p.o., 1 hr
  Number of dropped mice, slant test: 4 mice
Male dd mice [2]; 300 mg/kg p.o., 2 hr
  Number of dropped mice, slant test: 2 mice
Male dd mice [2]; 300 mg/kg p.o., 3 hr
  Number of dropped mice, slant test: 1 mice
Male dd mice [3]; 150 mg/kg p.o.
  responders at 150 mg/kg: 30%
Male dd mice [3]; 300 mg/kg p.o.
  responders at 300 mg/kg: 100%
Male dd mice [4]; 150 mg/kg p.o., 1 hr
  Number of dropped mice, rotating rod test: 1 mice
Male dd mice [4]; 150 mg/kg p.o., 2 hr
  Number of dropped mice, rotating rod test: 0 mice
Male dd mice [4]; 150 mg/kg p.o., 3 hr
  Number of dropped mice, rotating rod test: 0 mice
Male dd mice [4]; 300 mg/kg p.o., 1 hr
  Number of dropped mice, rotating rod test: 5 mice
Male dd mice [4]; 300 mg/kg p.o., 2 hr
  Number of dropped mice, rotating rod test: 5 mice
Male dd mice [4]; 300 mg/kg p.o., 3 hr
  Number of dropped mice, rotating rod test: 3 mice
Male Wistar rats
  inhibition in vivo at 150 mg/kg: 0%
Male dd mice [5]; 150 mg/kg p.o., 1 hr
  Number of dropped mice, traction test: 1 mice
Male dd mice [5]; 150 mg/kg p.o., 2 hr
  Number of dropped mice, traction test: 0 mice
Male dd mice [5]; 150 mg/kg p.o., 3 hr
  Number of dropped mice, traction test: 0 mice
Male dd mice [5]; 300 mg/kg p.o., 1 hr
  Number of dropped mice, traction test: 5 mice
Male dd mice [5]; 300 mg/kg p.o., 2 hr
  Number of dropped mice, traction test: 3 mice
Male dd mice [5]; 300 mg/kg p.o., 3 hr
  Number of dropped mice, traction test: 1 mice
In vivo
  LD50 at 168 h: > 1000 mg/kg

## Cc1c(C(=O)N(C)C)oc2c(Cl)cccc12 [Compound (C), 7-chloro-N,N,3-trimethylbenzo[b]furan-2-carboxamide]
Male dd mice [1]
  inhibition in vivo at 50 mg/kg: 85.3%
  inhibition in vivo at 150 mg/kg: 100%
Male dd mice [2]; 50 mg/kg p.o., 1 hr
  Number of dropped mice, slant test: 5 mice
Male dd mice [2]; 50 mg/kg p.o., 2 hr
  Number of dropped mice, slant test: 4 mice
Male dd mice [2]; 50 mg/kg p.o., 3 hr
  Number of dropped mice, slant test: 1 mice
Male dd mice [2]; 100 mg/kg p.o., 1 hr
  Number of dropped mice, slant test: 5 mice
Male dd mice [2]; 100 mg/kg p.o., 2 hr
  Number of dropped mice, slant test: 5 mice
Male dd mice [2]; 100 mg/kg p.o., 3 hr
  Number of dropped mice, slant test: 5 mice
Male dd mice [3]
  responders at 25 mg/kg: 40%
  responders at 50 mg/kg: 66.7%
  responders at 75 mg/kg: 80%
  responders at 100 mg/kg: 100%
Male dd mice [4]; 25 mg/kg p.o., 1 hr
  Number of dropped mice, rotating rod test: 3 mice
Male dd mice [4]; 25 mg/kg p.o., 2 hr
  Number of dropped mice, rotating rod test: 1 mice
Male dd mice [4]; 25 mg/kg p.o., 3 hr
  Number of dropped mice, rotating rod test: 0 mice
Male dd mice [4]; 50 mg/kg p.o., 1 hr
  Number of dropped mice, rotating rod test: 5 mice
Male dd mice [4]; 50 mg/kg p.o., 2 hr
  Number of dropped mice, rotating rod test: 5 mice
Male dd mice [4]; 50 mg/kg p.o., 3 hr
  Number of dropped mice, rotating rod test: 2 mice
Male dd mice [4]; 100 mg/kg p.o., 1 hr
  Number of dropped mice, rotating rod test: 5 mice
Male dd mice [4]; 100 mg/kg p.o., 2 hr
  Number of dropped mice, rotating rod test: 5 mice
Male dd mice [4]; 100 mg/kg p.o., 3 hr
  Number of dropped mice, rotating rod test: 5 mice
Male Wistar rats
  inhibition in vivo at 150 mg/kg: 35.1%
Male Wistar rats; 300 mg/kg p.o.
  inhibition in vivo at 300 mg/kg: 57.8%
Male dd mice [5]; 25 mg/kg p.o., 1 hr
  Number of dropped mice, traction test: 0 mice
Male dd mice [5]; 25 mg/kg p.o., 2 hr
  Number of dropped mice, traction test: 0 mice
Male dd mice [5]; 25 mg/kg p.o., 3 hr
  Number of dropped mice, traction test: 0 mice
Male dd mice [5]; 50 mg/kg p.o., 1 hr
  Number of dropped mice, traction test: 5 mice
Male dd mice [5]; 50 mg/kg p.o., 2 hr
  Number of dropped mice, traction test: 4 mice
Male dd mice [5]; 50 mg/kg p.o., 3 hr
  Number of dropped mice, traction test: 1 mice
Male dd mice [5]; 100 mg/kg p.o., 1 hr
  Number of dropped mice, traction test: 5 mice
Male dd mice [5]; 100 mg/kg p.o., 2 hr
  Number of dropped mice, traction test: 5 mice
Male dd mice [5]; 100 mg/kg p.o., 3 hr
  Number of dropped mice, traction test: 5 mice
In vivo
  LD50 at 168 h: > 1000 mg/kg

## Cc1c(C(=O)N(C)C)oc2ccc(Cl)cc12 [Compound (G), 5-Chloro-N,N,3-trimethyl-benzo[b]furan-2-carboxamide]
Male dd mice [1]
  inhibition in vivo at 150 mg/kg: 91.4%
Male dd mice [2]; 150 mg/kg p.o., 1 hr
  Number of dropped mice, slant test: 3 mice
Male dd mice [2]; 150 mg/kg p.o., 2 hr
  Number of dropped mice, slant test: 2 mice
Male dd mice [2]; 150 mg/kg p.o., 3 hr
  Number of dropped mice, slant test: 2 mice
Male dd mice [2]; 300 mg/kg p.o., 1 hr
  Number of dropped mice, slant test: 5 mice
Male dd mice [2]; 300 mg/kg p.o., 2 hr
  Number of dropped mice, slant test: 5 mice
Male dd mice [2]; 300 mg/kg p.o., 3 hr
  Number of dropped mice, slant test: 5 mice
Male dd mice [3]
  responders at 50 mg/kg: 0%
  responders at 75 mg/kg: 40%
  responders at 100 mg/kg: 100%
Male dd mice [4]; 75 mg/kg p.o., 1 hr
  Number of dropped mice, rotating rod test: 3 mice
Male dd mice [4]; 75 mg/kg p.o., 2 hr
  Number of dropped mice, rotating rod test: 1 mice
Male dd mice [4]; 75 mg/kg p.o., 3 hr
  Number of dropped mice, rotating rod test: 1 mice
Male dd mice [4]; 150 mg/kg p.o., 1 hr
  Number of dropped mice, rotating rod test: 5 mice
Male dd mice [4]; 150 mg/kg p.o., 2 hr
  Number of dropped mice, rotating rod test: 4 mice
Male dd mice [4]; 150 mg/kg p.o., 3 hr
  Number of dropped mice, rotating rod test: 3 mice
Male Wistar rats
  inhibition in vivo at 150 mg/kg: 45.7%
Male dd mice [5]; 75 mg/kg p.o., 1 hr
  Number of dropped mice, traction test: 1 mice
Male dd mice [5]; 75 mg/kg p.o., 2 hr
  Number of dropped mice, traction test: 1 mice
Male dd mice [5]; 75 mg/kg p.o., 3 hr
  Number of dropped mice, traction test: 1 mice
Male dd mice [5]; 150 mg/kg p.o., 1 hr
  Number of dropped mice, traction test: 3 mice
Male dd mice [5]; 150 mg/kg p.o., 2 hr
  Number of dropped mice, traction test: 3 mice
Male dd mice [5]; 150 mg/kg p.o., 3 hr
  Number of dropped mice, traction test: 2 mice
In vivo
  LD50 at 168 h: > 1000 mg/kg
